Measurements taken from ChEMBL document CHEMBL1151424, “In vitro efficacy of new antifolates against trimethoprim-resistant Bacillus anthracis” (Antimicrob Agents Chemother, 2007).
Values after ≈ are worked out from the molar mass of the structure shown.

Experiments:
Bacillus anthracis [1] = experiment: Antibacterial activity against Bacillus anthracis Sterne after 16 hrs by modified alamar blue microdilution broth assay; type: functional
[2] = Inhibition of Bacillus cereus recombinant DHFR expressed in Escherichia coli BL21(DE3) assessed as enzyme-dependent NADPH consumption
Dihydrofolate reductase [3] = target: T1, Dihydrofolate reductase (Homo sapiens, UniProt P00374); experiment: Inhibition of human recombinant DHFR
T1 sequence (P00374 whole entry): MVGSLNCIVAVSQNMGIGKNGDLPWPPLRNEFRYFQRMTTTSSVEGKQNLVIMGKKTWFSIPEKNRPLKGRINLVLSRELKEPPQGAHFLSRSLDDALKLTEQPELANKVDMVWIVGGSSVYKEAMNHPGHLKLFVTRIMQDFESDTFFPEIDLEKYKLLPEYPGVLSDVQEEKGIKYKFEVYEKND

[4] = Selectivity ratio of IC50 for human recombinant DHFR to IC50 for histidine-tagged Bacillus anthracis Sterne recombinant DHFR
Dihydrofolate reductase [5] = target: T2, Dihydrofolate reductase (Rattus norvegicus, UniProt Q920D2); experiment: Inhibition of rat DHFR
T2 sequence (Q920D2 whole entry): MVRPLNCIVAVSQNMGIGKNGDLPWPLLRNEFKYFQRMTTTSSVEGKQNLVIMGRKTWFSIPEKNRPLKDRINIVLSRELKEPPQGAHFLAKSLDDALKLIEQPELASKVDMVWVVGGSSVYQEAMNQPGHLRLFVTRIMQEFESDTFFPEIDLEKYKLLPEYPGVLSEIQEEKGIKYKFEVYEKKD

Bacillus cereus = experiment: Antibacterial activity against Bacillus cereus up to 10 hrs by growth inhibition assay; type: functional
Bacillus anthracis [6] = experiment: Inhibition of histidine-tagged Bacillus anthracis Sterne recombinant DHFR expressed in Escherichia coli BL21 Star (DE3)pLysS up to 3 mins; conditions: BL21, 0.05 h
Bacillus anthracis [7] = experiment: Antibacterial activity against Bacillus anthracis Ames (NR-411) after 16 hrs by modified alamar blue microdilution broth assay; type: functional; conditions: Ames NR-411, 16 h

SMILES	MIC (Bacillus anthracis [1]) [µg/mL]	IC50 [2] [µM]	IC50 (Dihydrofolate reductase [3]) [µM]	Ratio IC50 [4]	IC50 (Dihydrofolate reductase [5]) [µM]	MIC50 (Bacillus cereus) [µg/mL]	IC50 (Bacillus anthracis [6]) [µM]	MIC (Bacillus anthracis [7]) [µg/mL]
COc1cc(Cc2cnc(N)nc2N)cc(/C=C/C(=O)N2N=Cc3ccccc3C2c2ccc(CO)cc2)c1C(OC)OC (configuration not stated)	> 128							
COc1cc(Cc2cnc(N)nc2N)cc(/C=C/C(=O)N2N=Cc3ccccc3C2c2ccc(C)cc2)c1OC (configuration not stated)	≤ 64	0.27	> 19	> 127	25	2.6 (≈ 4.86 µM)	0.15	≤ 51.2
COc1cc(Cc2cnc(N)nc2N)cc(/C=C/C(=O)N2N=Cc3ccccc3C2c2ccccc2CN(C)C)c1OC (configuration not stated)	≤ 128		> 42				0.4	
CCCCC1c2ccccc2C=NN1C(=O)/C=C/c1cc(Cc2cnc(N)nc2N)cc(OC)c1OC (configuration not stated)	≤ 12.8	0.27	> 20	> 118	25	2.6 (≈ 5.19 µM)	0.17	≤ 12.8
COc1cc(Cc2cnc(N)nc2N)cc(/C=C/C(=O)N2N=Cc3ccccc3C2C2CCCCC2)c1OC (configuration not stated)	≤ 12.8	0.27	> 19		25	2.6 (≈ 4.94 µM)	0.26	≤ 12.8
COc1cc(Cc2cnc(N)nc2N)cc(/C=C/C(=O)N2N=Cc3ccccc3C2c2ccc(O)cc2)c1OC (configuration not stated)	> 128							
COc1cc(Cc2cnc(N)nc2N)cc(/C=C/C(=O)N2N=Cc3ccccc3C2C2CCCC2)c1OC (configuration not stated)	≤ 25.6	0.27	> 22	> 110	25	2.6 (≈ 5.07 µM)	0.2	≤ 12.8
COc1cc(Cc2cnc(N)nc2N)cc(/C=C/C(=O)N2Cc3ccccc3C=N2)c1OC	> 128	37						
COc1cc(Cc2cnc(N)nc2N)cc(/C=C/C(=O)N2N=Cc3ccccc3C2c2ccccc2)c1OCCN1CCOCC1 (configuration not stated)	≤ 32		> 21				0.17	≤ 25.6
COC(=O)C(C)(C)C1c2ccccc2C=NN1C(=O)/C=C/c1cc(Cc2cnc(N)nc2N)cc(OC)c1OC (configuration not stated)	≤ 128	0.27	813		25	2.6 (≈ 4.77 µM)	0.3	
CCC1c2ccccc2C=NN1C(=O)/C=C/c1cc(Cc2cnc(N)nc2N)cc(OC)c1OC (configuration not stated)	≤ 32	0.27	> 27	> 281	25	2.6 (≈ 5.5 µM)	0.096	≤ 25.6
COc1ncc(C2c3ccccc3C=NN2C(=O)/C=C/c2cc(Cc3cnc(N)nc3N)cc(OC)c2OC)c(OC)n1 (configuration not stated)	≤ 128		> 22				0.6	
COc1cc(Cc2cnc(N)nc2N)cc(CCC(=O)N2N=Cc3ccccc3C2C)c1OC (configuration not stated)	≤ 64	37	> 28				0.092	≤ 64
CCCC1c2ccccc2C=NN1C(=O)/C=C/c1cc(Cc2cnc(N)nc2N)cc(O)c1OC (configuration not stated)	≤ 12.8	0.27	110	2040	25	2.6 (≈ 5.5 µM)	0.054	≤ 16
COc1cc(Cc2cnc(N)nc2N)cc(/C=C/C(=O)N2N=Cc3ccccc3C2c2ccccc2CO)c1OC (configuration not stated)	> 128							
COc1cc(Cc2cnc(N)nc2N)cc(/C=C/C(=O)N2N=Cc3ccccc3C2c2ccc(CO)cc2)c1O (configuration not stated)	≤ 128		> 24				0.069	
COc1cc(Cc2cnc(N)nc2N)cc(/C=C/C(=O)N2N=Cc3ccccc3C2c2ccc(O)cc2)c1C(OC)OC (configuration not stated)	> 128							
COc1cc(Cc2cnc(N)nc2N)cc(/C=C/C(=O)N2N=Cc3ccccc3C2c2ccccc2)c1OC (configuration not stated)	≤ 25.6	0.27	> 16	> 348	25	2.6 (≈ 4.99 µM)	0.046	> 51.2
COc1cc(Cc2cnc(N)nc2N)cc(OC)c1OC [TRIMETHOPRIM]	> 2050							
COc1cc(Cc2cnc(N)nc2N)cc(/C=C/C(=O)N2N=Cc3ccccc3C2c2ccc(CO)cc2)c1OC (configuration not stated)	≤ 128		> 23				0.097	
COc1cc(Cc2cnc(N)nc2N)cc(/C=C/C(=O)N2N=Cc3ccccc3C2CCCO)c1OC (configuration not stated)	≤ 64	0.27	> 25		25	2.6 (≈ 5.17 µM)	0.12	> 102
COc1cc(Cc2cnc(N)nc2N)cc(/C=C/C(=O)N2N=Cc3ccccc3C2c2ccc(O)cc2)c1O (configuration not stated)	> 128							
